In patent US20120295802A1, “METHODS AND COMPOSITIONS FOR CANCER TREATMENT RELATING TO BRCA1 BRCT DOMAIN RECOGNITION OF PHOSPHORYLATED BACH1” (priority 2004, published 2012):
“Also recorded” adds a separate entry of the source.

Legend:
[1] = test system: optimal tandem BRCT domain-interacting phosphopeptide, YDIpSQVFPF, or its non-phosphorylated counterpart; test: Peptide binding: in vitro translated [35S] BRCA1 BRCT constructs on bead-immobilized phosphorylated or non-phosphorylated peptide; details: in vitro transcribed and translated protein; for binding to phosphorylated peptide: bead-immobilized biotinylated phosphopeptide, SDS-PAGE and autoradiography; for binding to non-phosphorylated peptide: bead-immobilized biotinylated non-phosphorylated peptide
Procedure: An optimal phosphopeptide for binding the BRCA1 BRCTs was determined by oriented peptide library screening as described previously. This peptide was synthesized in both its phosphorylated and non-phosphorylated form with a biotin group at the N-terminus using N-α-FMOC-protected amino acids and standard BOP/HOBt coupling chemistry. These peptides were conjugated to streptavidin coated beads (Sigma-Aldrich). The wild-type and mutant BRCA1 BRCT domain-containing constructs (residues 1313-1863) were transcribed and translated in vitro in the presence of [^35S]-methionine using the TNT kit (Promega). The bead-immobilized peptides (10 μL of beads) were added to 10 μL of the in vitro translated [^35S]-labeled protein pool in 150 μL binding buffer (50 mM Tris-HCl (pH7.6), 150 mM NaCl, 0.5% NP-40, 1 mM EDTA, 2 mM DTT, 8 μg/mL pepstatin, 8 μg mL^−1 aprotinin, 8 μg mL^−1 leupeptin, 800 μM Na3VO4, 25 mM NaF). After incubation at 4° C. for 3 hours, the beads were washed three times with 200 μL of binding buffer prior to analysis by SDS-PAGE (12.5% (w/v)) and autoradiography.

U2OS cells = test: Immunofluorescence: localization and nuclear foci formation of myc-tagged BRCA1 tandem BRCT domains; assay type: cell-based; details: for co-localization with anti-pSer/pThr-Gln epitope antibody staining / nuclear foci formation after DNA damage: U2OS cells, 10 Gy γ-irradiation; for co-localization with anti-pSer/pThr-Gln epitope antibody staining: 2 hrs; for nuclear foci formation after DNA damage: 2 hrs later permeabilized, fixed and stained
Procedure: U2OS cells were seeded onto 18 mm^2 coverslips and transfected with the BRCA1 BRCT construct (residues 1313-1863) and various mutants using FuGene6 transfection reagent (Roche) according to manufacturer's protocol. Thirty hours following transfection, the cells were either treated with 10 Gy of ionizing radiation or mock irradiated and allowed to recover for 120 minutes. Cells were fixed in 3% (v/v) paraformaldehyde/2% (w/v) sucrose for 15 min at RT and permeabilized with a 0.5% (v/v) Triton X-100 solution containing 20 mM Tris-HCl (pH 7.8), 75 mM NaCl, 300 mM sucrose, and 3 mM MgCl2 for 15 min at RT. When necessary, proteins were extracted after IR treatment as described previously. In brief, cells were incubated with extraction buffer (10 mM PIPES pH6.8, 100 mM NaCl, 300 mM sucrose, 3 mM MgCl2, 1 mM EGTA, 0.5% (v/v) Triton X-100) for 5 minutes on ice followed by incubation with extraction stripping buffer (10 mM Tris-HCl pH 7.4, 10 mM NaCl, 3 mM MgCl2, 0.5% (v/v) Triton X-100) for 5 minutes on ice followed by successive washes in ice cold PBS. Slides were fixed as above, stained with primary antibodies at 37° C. for 20 min, then stained with a anti-mouse or anti-rabbit secondary antibody for 20 min (Molecular Probes) at 37° C. Primary antibodies used were mouse anti-myc (Cell Signaling) and rabbit anti-(pSer/pThr)Gln (Cell Signaling). Images were collected on a Axioplan2 microscope (Carl Zeiss) and processed using OpenLab software (Improvision).

cholinesterases = details: by cholinesterases; cited from earlier work
endogenous BACH1 = target: T1, endogenous BACH1 (Homo sapiens, UniProt Q9BX63); test: Co-immunoprecipitation of BRCA1 BRCTs and BACH1 in transfected U2OS cells; assay type: cell-based; details: U2OS cells transfected with myc-tagged BRCA1 construct; anti-myc immunoprecipitation, anti-BACH1 blot
T1 construct: endogenous in cells; host or cells: U2OS cells (BACH1 endogenous; the BRCA1 fragment transfected from pcDNA3 with FuGene6)
T1 sequence (Q9BX63 1-1249): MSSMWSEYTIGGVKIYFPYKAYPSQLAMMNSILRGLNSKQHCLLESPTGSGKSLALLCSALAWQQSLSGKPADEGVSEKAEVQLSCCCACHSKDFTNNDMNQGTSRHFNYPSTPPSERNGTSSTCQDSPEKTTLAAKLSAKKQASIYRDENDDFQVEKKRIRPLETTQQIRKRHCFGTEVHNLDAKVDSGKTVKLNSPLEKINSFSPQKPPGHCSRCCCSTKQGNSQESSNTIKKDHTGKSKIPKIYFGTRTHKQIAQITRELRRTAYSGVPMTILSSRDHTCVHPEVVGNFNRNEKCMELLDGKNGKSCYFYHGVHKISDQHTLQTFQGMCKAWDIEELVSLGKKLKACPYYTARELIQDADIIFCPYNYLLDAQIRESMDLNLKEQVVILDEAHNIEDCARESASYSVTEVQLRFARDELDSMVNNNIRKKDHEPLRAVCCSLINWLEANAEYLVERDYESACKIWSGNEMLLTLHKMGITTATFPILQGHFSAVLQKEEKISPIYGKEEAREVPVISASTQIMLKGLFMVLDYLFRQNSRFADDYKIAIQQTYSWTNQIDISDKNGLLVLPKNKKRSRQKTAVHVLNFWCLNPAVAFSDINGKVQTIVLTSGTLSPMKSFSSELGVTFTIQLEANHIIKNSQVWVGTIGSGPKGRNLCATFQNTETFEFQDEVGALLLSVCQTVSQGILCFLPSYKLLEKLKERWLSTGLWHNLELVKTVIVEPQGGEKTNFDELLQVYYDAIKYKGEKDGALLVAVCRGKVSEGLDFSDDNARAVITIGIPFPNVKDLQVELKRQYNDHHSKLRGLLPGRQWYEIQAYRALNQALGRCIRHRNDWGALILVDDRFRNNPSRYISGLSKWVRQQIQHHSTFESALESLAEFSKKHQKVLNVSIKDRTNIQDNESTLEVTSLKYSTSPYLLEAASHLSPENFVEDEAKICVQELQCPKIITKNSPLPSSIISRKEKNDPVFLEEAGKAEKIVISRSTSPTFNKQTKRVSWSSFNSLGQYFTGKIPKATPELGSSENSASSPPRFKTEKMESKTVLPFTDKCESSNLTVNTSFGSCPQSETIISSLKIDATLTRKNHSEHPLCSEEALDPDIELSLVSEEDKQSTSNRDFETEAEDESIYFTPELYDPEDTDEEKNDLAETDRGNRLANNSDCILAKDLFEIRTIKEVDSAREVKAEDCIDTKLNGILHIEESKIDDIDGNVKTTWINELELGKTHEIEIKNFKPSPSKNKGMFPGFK
Procedure: U2OS cells were grown to 50% confluency in 100 cm^2 dishes and transfected with the myc-tagged wild-type or mutant BRCA1 BRCT constructs (residues 1313-1863) (SEQ ID NO.: 6) using FuGene6 transfection reagent (Roche) according to manufacturer's protocol. Cells were collected 30 hrs following transfection, lysed in lysis buffer (50 mM Tris-HCl (pH7.6), 150 mM NaCl, 1.0% NP-40, 5 mM EDTA, 2 mM DTT, 8 μg/mL AEBSF, 8 μg mL^−1 aprotinin, 8 μg mL^−1 leupeptin, 2 mM Na3VO4, 10 mM NaF and the phosphatase inhibitors microcystin and okadaic acid). Lysates containing equal amounts of protein (3 mg) was incubated with 3 μL of a mouse anti-myc antibody (Cell Signaling) for 2 hr at 4° C. and then 10 μL of protein G-sepharose beads (Sigma-Aldrich) were added and samples incubated for an additional 2 hr at 4° C. Beads were washed four times with lysis buffer, bound proteins eluted in SDS-PAGE sample buffer, analysed on 6% polyacrylamide gels, transferred to PVDF membrane, and detected by blotting with rabbit anti-BACH1 antibody. A portion of the lysates were also run and blotted with the anti-BACH1 antibody and the anti-myc antibody to further ensure equal protein loading.

[2] = target: T2, BACH1 phosphopeptide spot array (Homo sapiens); test: Peptide filter array (spot blot) with GST-BRCA1 BRCTs; assay type: binding; details: 0.25 μM GST-BRCA1 BRCTs M1775R, 10 times the protein of wild type
T2 construct: made in house; host or cells: bacteria (pGEX clone, IPTG induction)
Procedure: An ABIMED peptide arrayer with a computer controlled Gilson diluter and liquid handling robot was used to synthesize peptides onto an amino-PEG cellulose membrane using N-α-FMOC-protected amino acids and DIC/HOBT coupling chemistry. The membranes were blocked in 5% (w/v) milk in Tris-buffered saline containing 0.1% (v/v) Tween-20 (TBS-T) for 1 hr at room temperature, incubated with 0.025 μM GST-BRCA1 BRCTs or 0.25 μM GST-BRCA1 BRCTs M1775R (residues 1633-1863) in 5% (w/v) milk, 50 mM Tris-HCl (pH 7.6), 150 mM NaCl, 2 mM EDTA, 2 mM DTT for 1 hr at room temperature and washed four times with TBS-T. The membranes were then incubated with anti-GST conjugated HRP (Amersham) in 5% (w/v) milk/TBS-T for 1 hr at room temperature, washed five times with TBS-T, and binding analysed by ECL (Perkin-Elmer).

| Compound | binding to phosphorylated peptide [1] | co-localization with anti-pSer/pThr-Gln epitope antibody staining (U2OS cells) | nuclear foci formation after DNA damage (U2OS cells) | also measured |
| --- | --- | --- | --- | --- |
| S1655A/K1702M: phosphopeptide-binding double mutant of BRCA1 tandem BRCT domains (SEQ ID NO.: 20) | completely abolished the interaction | completely failed to co-localize | only faint staining with a very fine granular pattern | nuclear foci, in words (U2OS cells; un-irradiated U2OS cells, Triton X-100 extracted prior to fixation): no foci were observed |
| P1749R: cancer-linked BRCA1 tandem BRCT domain mutant (SEQ ID NO.: 18) | complete loss of phosphopeptide binding | – | – | – |
| C[C@H]1C[C@@H]2[C@H]([C@@H](O)C[C@@]3(C)[C@H]2CC[C@]3(O)C(=O)COC(=O)CCC(=O)[O-])[C@@]2(C)C=CC(=O)C=C12.[Na+] [Methylprednisolone sodium succinate ester] | – | – | – | hydrolysis in vivo to free methylprednisolone (cholinesterases): rapidly and extensively hydrolysed |
| Wild-type BRCA1 tandem BRCT domains: myc-tagged human BRCA1 BRCT construct, residues 1313-1863, with SV40 nuclear localization sequence; GST fusion of residues 1633-1863 for the filter array | clearly bind | largely co-localized | demonstrated sharp punctate nuclear foci | binding to non-phosphorylated peptide [1]: not non-phosphorylated peptides; in vivo interaction with full-length endogenous BACH1 (endogenous BACH1): easily detected |
| G1738E: cancer-linked BRCA1 tandem BRCT domain mutant (SEQ ID NO.: 17) | complete loss of phosphopeptide binding | – | – | – |
| Y1853X: BRCA1 BRCT mutant which truncates the last 11 residues (SEQ ID NO.: 21) | complete loss of phosphopeptide binding | – | – | – |
| M1775R: cancer-associated BRCA1 tandem BRCT domain mutant (SEQ ID NO.: 10) | complete loss of phosphopeptide binding | less co-localization with pSer/pThr-Gln staining foci than the wild-type protein | also formed punctate nuclear foci, although these were slightly reduced in number; also recorded: can still form nuclear foci after DNA damage | in vivo interaction with full-length endogenous BACH1 (endogenous BACH1): completely loses the ability to interact with wild-type BACH1; binding to BACH1 phosphopeptide in which the +3 Phe is mutated to Asp or Glu [2]: bind weakly; also recorded: binds weakly to phosphopeptides with altered motif specificity |
| 5382InsC: BRCA1 frameshift mutation that results in a stop codon at position 1829 (SEQ ID NO.: 22) | complete loss of phosphopeptide binding | – | – | – |
| R1699Q: BRCA1 tandem BRCT domain mutant detected in breast cancer patients (SEQ ID NO.: 14) | retained a small degree of binding | – | – | binding to non-phosphorylated peptide [1]: weak phospho-independent binding; also recorded: bound to both phosphorylated and non-phosphorylated peptides |
